Laboratory results reported in patent US20250206758A1, “SUBSTITUTED BRIDGED RING INHIBITOR, PREPARATION METHOD THEREFOR AND APPLICATION THEREOF” (SUZHOU ZELGEN BIOPHARMACEUTICALS CO., LTD., priority 2022, published 2025).
Like-named read-outs stand apart in the source and are kept apart here.

Key:
GP2D = assay: Cell proliferation inhibition, GP2D (CellTiter-Glo 3D, 7 days); format: cell-based
Method: (§1) • (a) Resuscitating cells in T75 cell culture flask: • (b) When the cell confluence reaches 80-90%, subculturing the cells.
(§2) The diluted test compound was added to a 384-well cell culture plate with a nanoliter pipetting system, and duplicate wells were set up. An equal volume of culture medium was added to the positive control group; and an equal volume of DMSO was added to the negative control group, then centrifugation was conducted at 1000 rpm for 1 min at room temperature.
(§3) Cells were inoculated into a) 384-well culture plate, with an equal volume of cells added to the negative control group, and only an equal volume of culture medium added to the positive control group. The plate was centrifuged at 1000 rpm for 1 min at room temperature, and the final DMSO concentration of the compound was 0.5% at last. The plate was placed in a 37° C., 5% CO2 constant temperature incubator for 7 days.
(§4) 20 μL/well of CellTiter-Glo® 3D to b) was added to 384-well cell culture plate, and the plate was shook at 320 rpm for 20 min in the dark, and incubated at room temperature in the dark for 2 hrs.
(§5) The luminescence value was read using an Envision multi-functional microplate reader.
(§6) The inhibition rate (IR) of the test compound was calculated using the following formula: IR (%)=(1−(RLU compound−RLU blank control)/(RLU meidum control−RLU blank control))*100%. The inhibition rates of different concentrations of compounds were calculated in Excel, and then the inhibition curves were plotted and the related parameters (including the minimum inhibition rate, maximum inhibition rate and IC50) were calculated using GraphPad Prism software.

AsPC-1 = assay: Cell proliferation inhibition, AsPC-1 (CellTiter-Glo 3D, 7 days); format: cell-based; details: AsPC-1, 7 days
Method: as §1, §2, §3, §4, §5, §6

IC50 (AsPC-1) | SMILES | IC50 (GP2D; 168 h) | IC50 (AsPC-1; Homo sapiens, ASPC1, 168 h) | IC50 (GP2D)
– | CCc1c(F)ccc2cc(O)cc(-c3ncc4c(N5CC6CCC(C5)N6)nc(OC[C@]56CCCN5C[C@]5(CC5(F)F)C6)nc4c3F)c12 [Example 17B] | 1.15 nM | 7.84 nM | –
– | Cc1cc(N)nc(-c2ncc3c(N4CC5CCC(C4)N5)nc(OC[C@@]45CCCN4C[C@@]4(CC4(F)F)C5)nc3c2F)c1C(F)(F)F [Example 18, 6-(4-((1R,5S)-3,8-diazabicyclo[3.2.1]octan-3-yl)-2-(((trans)-2,2-difluorodihydro-1′H,3′H-spiro[cyclopropan-1,2′-pyrrolizin]-7a′(5′H)-yl)methoxy)-8-fluoropyridino[4,3d]pyrimidin-7-yl)-4-methyl-5-(trifluoromethyl)pyridin-2-amine] | 9.83 nM | 307 nM | –
4.11 nM | C#Cc1c(F)ccc2cc(O)cc(-c3ncc4c(N5C[C@H]6CC[C@@](C)(C5)N6)nc(OC[C@@]56CCCN5C[C@@]5(CC5(F)F)C6)nc4c3F)c12 [Example 20A, 4-(2-(((1S,7a'S)-2,2-difluorodihydro-1′H,3′H-spiro[cyclopropan-1,2′-pyrrolizin]-7a′(5′H)-yl)methoxy)-8-fluoro-4-((1S,5R)-1-methyl-3,8-diazabicyclo[3.2.1]octan-3-yl)pyridino[4,3-d]pyrimidin-7-yl)-5-ethynyl-6-fluoronaphthol-2-ol] | – | – | 0.44 nM
4.86 nM | C#Cc1c(F)ccc2cc(O)cc(-c3ncc4c(N5C[C@@H]6CC[C@](C)(C5)N6)nc(OC[C@@]56CCCN5C[C@@]5(CC5(F)F)C6)nc4c3F)c12 [Example 20B, 4-(2-(((1S,7a'S)-2,2-difluorodihydro-1′H,3′H-spiro[cyclopropan-1,2′-pyrrolizin]-7a′(5′H)-yl)methoxy)-8-fluoro-4-((1R,5S)-1-methyl-3,8-diazabicyclo[3.2.1]octan-3-yl)pyridino[4,3-d]pyrimidin-7-yl)-5-ethynyl-6-fluoronaphthol-2-ol] | – | – | 0.58 nM
– | Cc1c(F)cc2[nH]ncc2c1-c1ncc2c(N3C[C@H]4CC[C@@H](C3)N4)nc(OC[C@@]34CCCN3C[C@@]3(CC3(F)F)C4)nc2c1F [Example 22, (1S,7a'S)-7a′-(((4-((1R,5S)-3,8-diazabicyclo[3.2.1]octan-3-yl)-8-fluoro-7-(6-fluoro-5-methyl-1H-indazol-4-yl)pyridino[4,3-d]pyrimidin-2-yl)oxy)methyl)-2,2-difluorodihydro-1′H,3′H-spiro[cyclopropan-1,2′-pyrrolizin]] | > 100 nM | > 1000 nM | –
– | Nc1nc2c(-c3ncc4c(N5C[C@H]6CC[C@@H](C5)N6)nc(OC[C@@]56CCCN5C[C@@]5(CC5(F)F)C6)nc4c3F)ccc(F)c2s1 [Example 23, 4-(4-((1R,5S)-3,8-diazabicyclo[3.2.1]octan-3-yl)-2-(((1S,7a'S)-2,2-difluorodihydro-1′H,3′H-spiro[cyclopropan-1,2′-pyrrolizin]-7a′(5′H)-yl)methoxy)-8-fluoropyridino[4,3-d]pyrimidin-7-yl)-7-fluorobenzo[d]thiazol-2-amine] | > 100 nM | > 1000 nM | –
– | Nc1c(Cl)cc(Cl)c(F)c1-c1ncc2c(N3C[C@H]4CC[C@@H](C3)N4)nc(OC[C@@]34CCCN3C[C@@]3(CC3(F)F)C4)nc2c1F [Example 25, 2-(4-((1R,5S)-3,8-diazabicyclo[3.2.1]octan-3-yl)-2-(((1S,7a'S)-2,2-difluorodihydro-1′H,3′H-spiro[cyclopropan-1,2′-pyrrolizin]-7a′(5′H)-yl)methoxy)-8-fluoropyridino[4,3-d]pyrimidin-7-yl)-4,6-dichloro-3-fluoroaniline] | > 100 nM | > 1000 nM | –
– | C#Cc1c(F)ccc2cc(O)cc(-c3ncc4c(N5CCC6CCC(C5)N6)nc(OC[C@@]56CCCN5C[C@@]5(CC5(F)F)C6)nc4c3F)c12 (stereo partly drawn) [Example 28, 4-(4-(3,9-diazabicyclo[4.2.1]nonan-3-yl)-2-(((1S,7a'S)-2,2-difluorodihydro-1′H,3′H-spiro[cyclopropan-1,2′-pyrrolizin]-7a′(5′H)-yl)methoxy)-8-fluoropyridino[4,3-d]pyrimidin-7-yl)-5-ethynyl-6-fluoronaphthalen-2-ol] | 19.8 nM | 188 nM | –
– | C#Cc1c(F)ccc2cc(O)cc(-c3ncc4c(N5CCCC(C)(N)C5)nc(OC[C@@]56CCCN5C[C@@]5(CC5(F)F)C6)nc4c3F)c12 (stereo partly drawn) [Example 29, 4-(4-(3-amino-3-methylpiperidin-1-yl)-2-(((1S,7a'S)-2,2-difluorodihydro-1′H,3′H-spiro[cyclopropan-1,2′-pyrrolizin]-7a′(5′H)-yl)methoxy)-8-fluoropyridino[4,3-d]pyrimidin-7-yl)-5-ethynyl-6-fluoronaphthalen-2-ol] | 17.7 nM | 180 nM | –
– | COc1c(-c2c(F)c(N)cc(C)c2C(F)(F)F)ncc2c(N3C[C@H]4CC[C@@H](C3)N4)nc(OC[C@@]34CCCN3C[C@@]3(CC3(F)F)C4)nc12 [Example 30, 3-(4-((1R,5S)-3,8-diazabicyclo[3.2.1]octan-3-yl)-2-(((1S,7a'S)-2,2-difluorodihydro-1′H,3′H-spiro[cyclopropan-1,2′-pyrrolizin]-7a′(5′H)-yl)methoxy)-8-methoxypyridino[4,3-d]pyrimidin-7-yl)-2-fluoro-5-methyl-4-(trifluoromethyl)aniline] | > 100 nM | > 1000 nM | –
– | COc1c(-c2cc(N)cc(Cl)c2C(F)(F)F)ncc2c(N3C[C@H]4CC[C@@H](C3)N4)nc(OC[C@@]34CCCN3C[C@@]3(CC3(F)F)C4)nc12 [Example 31, 3-(4-((1R,5S)-3,8-diazabicyclo[3.2.1]octan-3-yl)-2-(((1S,7a'S)-2,2-difluorodihydro-1′H,3′H-spiro[cyclopropan-1,2′-pyrrolizin]-7a′(5′H)-yl)methoxy)-8-methoxypyridino[4,3-d]pyrimidin-7-yl)-5-chloro-4-(trifluoromethyl)aniline] | 24.3 nM | 259 nM | –
– | N#Cc1c(N)sc2cc(F)cc(-c3ncc4c(N5C[C@H]6CC[C@@H](C5)N6)nc(OC[C@@]56CCCN5C[C@@]5(CC5(F)F)C6)nc4c3F)c12 [Example 32, 4-(4-((1R,5S)-3,8-diazabicyclo[3.2.1]octan-3-yl)-2-(((1S,7a'S)-2,2-difluorodihydro-1′H,3′H-spiro[cyclopropan-1,2′-pyrrolizin]-7a′(5′H)-yl)methoxy)-8-fluoropyridino[4,3-d]pyrimidin-7-yl)-2-amino-6-fluorobenzo[b]thiophen-3-carbonitrile] | 21 nM | 483 nM | –
– | Fc1c(-c2c(C(F)(F)F)ccc3[nH]ncc23)ncc2c(N3CC4CCC(C3)N4)nc(OC[C@@]34CCCN3C[C@@]3(CC3(F)F)C4)nc12 [Example 33, (1S,7a'S)-7a′-(((4-((1R,5S)-3,8-diazabicyclo[3.2.1]octan-3-yl)-8-fluoro-7-(5-(trifluoromethyl)-1H-indazol-4-yl)pyridino[4,3-d]pyrimidin-2-yl)oxy)methyl)-2,2-bifluorotetrahydro-1′H,3′H-spiro[cyclopropan-1,2′-pyrrolizin]] | > 100 nM | > 1000 nM | –
– | CC(=O)Nc1cc(Cl)c(C(F)(F)F)c(-c2ncc3c(N4C[C@H]5CC[C@@H](C4)N5)nc(OC[C@@]45CCCN4C[C@@]4(CC4(F)F)C5)nc3c2F)c1 [Example 38, N-(3-(4-((1R,5S)-3,8-diazabicyclo[3.2.1]octan-3-yl)-2-(((1S,7a'S)-2,2-difluorodihydro-1′H,3′H-spiro[cyclopropan-1,2′-pyrrolizin]-7a′(5′H)-yl)methoxy)-8-fluoropyridino[4,3-d]pyrimidin-7-yl)-5-chloro-4-(trifluoromethyl)phenyl)acetamide] | 14.1 nM | 142 nM | –
